Measured values as given in patent US9975852B2, “Quinoline sulfonyl derivatives and uses thereof” (Health Sciences North Research Institute, priority 2013, dated 2018).
Read-outs that look alike come from different tables or passages of the source.

How the values were obtained:
MCF10A = assay: SRB antiproliferative assay, MCF10A non-cancer breast cells; assay type: cell-based, human; settings: 48 h
Procedure: (§1) Antiproliferative effects were determined by a sulforhodamine B (SRB) based protocol. For a typical screening experiment, 5,000-10,000 cells were inoculated into 100 μl medium per well of a 96-well microtiter plate as described previously. […] Some of the sample wells were fixed with 25 μl of 50% trichloroacetic acid (TCA) as a control of the cell population for each cell line at the time of drug addition (Tz). An aliquot of the frozen stock was thawed and diluted to the desired final maximum test-concentration with complete medium. Two to ten-fold serial dilutions were made to provide a total of seven drug concentrations (and a control [C]). Following addition of drugs, the culture plate was incubated for additional 48 h. Cells were fixed in situ by slowly adding 25 μl of ice-cold 50% (w/v) TCA (final concentration, 10% TCA), and were then incubated for 60 min at 4° C. The supernatant was discarded, and the plate was washed five times with tap water, followed by air-dry. 50 μl of SRB solution at 0.4% (w/v) in 1% acetic acid was added to each well, and the plate was incubated for >30 min at room temperature. Unbound SRB was removed by five washes with tap water, followed by air-drying. […] The relative growth rate (%) was calculated for each of the compound concentrations according to the following formula: (Ti−Tz)/(C−Tz)×100 In the formula, time zero (Tz), control growth (C), and OD for different concentration of tested compounds (Ti). The GI50 for each compound was obtained from a non-linear Sigmoidal dose-response (variable slope) curve which is fitted by GraphPad Prism™ v.4.03 software. Values were calculated for each of these parameters if the level of activity was reached. However, if the effect was not reached or was exceeded, the value for that parameter was expressed as greater or less than the maximum or minimum concentration tested. Flow Cytometry

MDA-MB231 = assay: SRB antiproliferative assay, MDA-MB231; assay type: cell-based, human
Procedure: as §1

MCF7 = assay: SRB antiproliferative assay, MCF7; assay type: cell-based, human; settings: SRB, 48 h, read-out: GI50 MCF7
Procedure: as §1

MDA-MB468 = assay: SRB antiproliferative assay, MDA-MB468; assay type: cell-based, human
Procedure: as §1

184B5 = assay: SRB antiproliferative assay, 184B5 non-cancer breast cells; assay type: cell-based, human; settings: read-out: GI50 184B5
Procedure: as §1

U87MG brain cancer cells = assay: Clonogenic assay, U87MG brain cancer cells; assay type: cell-based; settings: Temozolomide
Procedure: (§2) The clonogenic assay was carried out as described in Santi and Lee (2011).^11

MCF7 cells = assay: Clonogenic assay using MCF7 cells; assay type: cell-based, human
Procedure: as §2
Antiproliferative activity of VR-23 was evaluated on a variety of different cell lines, alone or in combination with Bortezomib, by way of SRBSRB or clonogenic assays.

Jurkat lymphoma cells = assay: Flow cytometry, apoptosis of Jurkat lymphoma cells; assay type: cell-based; settings: 6 nM Bortezomib, 48 hours
Procedure: Asynchronously growing Jurkat lymphoma cells were incubated for 48 hours in the absence (sham control) or presence of Bortezomib alone or in combination with VR-23.

Row | Compound | GI50 (MDA-MB231; Homo sapiens, MDA-MB-231, 48 h) [µM] | GI50 (MCF7; Homo sapiens, MCF7) [µM] | GI50 (MDA-MB468; Homo sapiens, MDA-MB-468, 48 h) [µM] | GI50 (184B5; Homo sapiens, 184B5, SRB, 48 h) [µM] | melting point [°C] | other results
1 | O=S(=O)(c1ccc(Cl)cc1)N1CCN(c2ccnc3cc(Cl)ccc23)CC1 [VR-24 (39), 7-Chloro-4-(4-(4-chlorophenylsulfonyl)piperazin-1-yl)quinoline] | 11.8 ± 0.91 | 4.31 ± 0.32 | 8.34 ± 0.73 | 6.36 ± 0.34 |  | GI50 (MCF10A; Homo sapiens, MCF-10A): 9.7 ± 0.81 µM
2 | N.N.[Cl][Pt][Cl] [Cisplatin, reference compound] |  |  |  |  |  | GI50 (MCF10A): 51.5 ± 0.65 µM; GI50 (MDA-MB231; 48 h): 23.65 ± 0.23 µM; GI50 (MCF7): 25.8 ± 0.38 µM; GI50 (MDA-MB468; 48 h): 31 ± 0.45 µM; GI50 (184B5; SRB, 48 h): 25.5 ± 0.35 µM
3 | CN(C)c1cccc2c(S(=O)(=O)NCCCNc3ccnc4cc(Cl)ccc34)cccc12 [VR-65 (41), 5-Dimethylamino-naphthalene-1-sulfonic acid [3-(7-chloro-quinolin-4-ylamino)-propyl]-amide] | 12.7 ± 1.01 |  | 4.63 ± 0.35 | 1.67 ± 0.08 |  | GI50 (MCF10A; Homo sapiens, MCF-10A): 2.56 ± 0.03 µM
4 | Cn1nnc2c(C(N)=O)ncn2c1=O [Temozolomide] |  |  |  |  |  | # Colonies (Experiment #1) (U87MG brain cancer cells; 1 μM): 64; # Colonies (Experiment #2) (U87MG brain cancer cells; 1 μM): 94; # Colonies (Experiment #1) (U87MG brain cancer cells; 5 μM): 39; # Colonies (Experiment #2) (U87MG brain cancer cells; 5 μM): 50; # Colonies (Experiment #1) (U87MG brain cancer cells; 10 μM): 4; # Colonies (Experiment #2) (U87MG brain cancer cells; 10 μM): 5; # Colonies (Experiment #1) (U87MG brain cancer cells; 20 μM): 2; # Colonies (Experiment #2) (U87MG brain cancer cells; 20 μM): 1; # Colonies (Experiment #1) (U87MG brain cancer cells; 50 μM): 2; # Colonies (Experiment #2) (U87MG brain cancer cells; 50 μM): 1
5 | O=[N+]([O-])c1cccc(S(=O)(=O)N2CCN(c3ccnc4cc(Cl)ccc34)CC2)c1 [VR-25 (40), 7-Chloro-4-(4-(3-nitrophenylsulfonyl)piperazin-1-yl)quinoline] | 20.4 ± 1.15 | 8.62 ± 0.38 | 9.21 ± 0.65 | 15.8 ± 0.88 |  | GI50 (MCF10A; Homo sapiens, MCF-10A): 31.1 ± 1.01 µM
6 | CC(C)C[C@H](NC(=O)[C@H](Cc1ccccc1)NC(=O)c1cnccn1)B(O)O [Bortezomib] |  |  |  |  |  | Average colony number (MCF7 cells; Bortezomib at 2 nM, series with non-treated control 34): 15; Average colony number (MCF7 cells; Bortezomib at 4 nM, series with non-treated control 34): 12; Average colony number (MCF7 cells; Bortezomib at 4 nM, series with non-treated control 36): 11; Average colony number (MCF7 cells; Bortezomib at 6 nM, series with non-treated control 36): 6; Cell killing by apoptosis (Jurkat lymphoma cells): neither 6 nM of Bortezomib (FIG. 4, ii) nor 0.75 μM of VR-23 (FIG. 4, iv) induced substantial cell killing by apoptosis
7 | Cc1ccc(S(=O)(=O)N2CCN(c3ccnc4cc(Cl)ccc34)CC2)cc1 [VR-22 (38), 7-Chloro-4-(4-tosylpiperazin-1-yl)quinoline] | 6.16 ± 0.51 | 5.25 ± 0.45 | 5.77 ± 0.41 | 9.56 ± 0.53 |  | GI50 (MCF10A; Homo sapiens, MCF-10A): 12.6 ± 0.66 µM
8 | O=S(=O)(c1ccc(-c2ccccc2)cc1)N1CCN(c2ccnc3cc(C(F)(F)F)ccc23)CC1 [Compound 9, 4-[4-(Biphenyl-4-sulfonyl)-piperazin-1-yl]-7-trifluoromethyl-quinoline] | 27.2 ± 0.61 | 14.8 ± 0.19 | 20.5 ± 0.54 | 19.1 ± 0.24 | 148 to 150 | 
9 | CS(=O)(=O)NCCCNc1ccnc2cc(C(F)(F)F)ccc12 [Compound 23, N-[3-(7-Trifluoromethyl-quinolin-4-ylamino)-propyl]-methanesulfonamide] | 55.9 ± 1.56 | 25.3 ± 1.23 | 30.4 ± 0.99 | 59.5 ± 1.56 | 171 to 173 | 
10 | Cc1ccc(S(=O)(=O)N2CCN(c3ccnc4cc(C(F)(F)F)ccc34)CC2)cc1 [Compound 8, 4-[4-(Toluene-4-sulfonyl)-piperazin-1-yl]-7-trifluoromethyl-quinoline] | 42.7 ± 0.83 | 20.8 ± 0.23 | 36.5 ± 0.75 | 13 ± 0.14 | 126 to 128 | 
11 | O=[N+]([O-])c1ccc(S(=O)(=O)NCCCNc2ccnc3cc(Cl)ccc23)c([N+](=O)[O-])c1 [Compound 17, N-[3-(7-Chloro-quinolin-4-ylamino)-propyl]-2,4-dinitro-benzenesulfonamide] | 8.85 ± 0.71 | 6.16 ± 0.32 | 7.35 ± 0.23 |  | 238 to 240 | GI50 (184B5; Homo sapiens, 184B5, 48 h): 9.09 ± 0.56 µM
12 | COC(=O)c1sccc1S(=O)(=O)N1CCN(c2ccnc3cc(C(F)(F)F)ccc23)CC1 [Compound 14, 3-[4-(7-Trifluoromethyl-quinolin-4-yl)-piperazine-1-sulfonyl]-thiophene-2-carboxylic acid methyl ester] | 34.7 ± 0.71 | 16 ± 0.24 | 23.9 ± 0.64 | 15.88 ± 0.14 | 117 to 119 | 
13 | O=S(=O)(NCCCNc1ccnc2cc(C(F)(F)F)ccc12)c1ccc(Cl)cc1 [Compound 27, 4-Chloro-N-[3-(7-trifluoromethyl-quinolin-4-ylamino)-propyl]-benzenesulfonamide] | 12.8 ± 0.88 | 5.44 ± 0.34 | 10.3 ± 0.56 | 7.63 ± 0.43 | 70 to 72 | 
14 | O=[N+]([O-])c1cccc(S(=O)(=O)NCCCNc2ccnc3cc(C(F)(F)F)ccc23)c1 [Compound 26, 3-Nitro-N-[3-(7-trifluoromethyl-quinolin-4-ylamino)-propyl]-benzenesulfonamide] | 15.8 ± 0.95 | 8.25 ± 0.52 | 9.09 ± 0.57 | 8.01 ± 0.76 | 98 to 100 | 
15 | O=S(=O)(NCCCNc1ccnc2cc(C(F)(F)F)ccc12)c1ccc(-c2ccccc2)cc1 [Compound 29, Biphenyl-4-sulfonic acid [3-(7-trifluoromethyl-quinolin-4-ylamino)-propyl]-amide] | 6.03 ± 0.38 | 3.6 ± 0.27 | 4.19 ± 0.23 | 2.82 ± 0.05 | 110 to 112 | 
